Source: patent publication US20230165766A1, “DISPERSANT OR DISPERSION MEDIA COMPOSITION COMPRISING 2,3-BUTANEDIOL, AND COSMETIC COMPOSITION COMPRISING SAME” (GS CALTEX CORPORATION, priority 2020, published 2023)

Columns and labels:
[1] = cited from earlier work
[2] = Dispersion force of allantoin in solubilized formulation; assay type: physicochemical
Protocol: 0.02 parts by weight of EDTA-2Na, 2 parts by weight of 1,2-hexanediol, and 0.5 parts by weight of allantoin were added to 100 parts by weight of purified water to prepare a water-based mixed solution. On the other hand, 0.1 parts by weight of fragrance, 0.3 parts by weight of PEG-60 hydrogenated castor oil, 5 parts by weight of 95% ethanol and 10 parts by weight of the polyol of Present Example 2 were mixed with each other to prepare a solubilized mixed solution. That is, the water-based mixed solution is composed of ultrapure water, EDTA-2Na, 1,2-hexanediol and allantoin, while the solubilized mixed solution is composed of fragrance, PEG-60 hydrogenated castor oil, ethanol and polyol.
The water-based mixed solution was stirred at room temperature for 3 minutes. On the other hand, the solubilized mixed solution was stirred was heating the same to 45 to 50° C. to make the same transparent. Then, the solubilized mixed solution was slowly added to the water-based mixed solution to prepare a mixture which in turn was stirred at room temperature for 2 minutes.
The amount of precipitation of allantoin was measured as follows. […] Then, the precipitated portion was dried for 12 hours, and then a weight thereof was measured. Thus, the amount of precipitation was derived as a difference value between the measured weight and the previously measured weight of the empty container.

[3] = Allantoin dispersion force evaluation (precipitation amount in water); assay type: physicochemical
Excerpt: Precipitation of allantoin occurs well when the temperature is low. When allantoin is precipitated during cosmetic production, it is problematic. In accordance with the present disclosure, using the property of allantoin whose precipitation occurs well, the dispersion force was identified in a short time by measuring an amount of precipitation of allantoin based on each of the polyols under a severe refrigeration condition when the temperature is low, and then the dispersion forces of the various polyols were compared with each other. The stability was evaluated at each of a room temperature, a refrigeration temperature, and thermostat (45° C.). […] In this experiment, the dispersion force of allantoin, that is, the precipitation amount, and a precipitation rate thereof, based on each of the polyols was evaluated. […] The amount of precipitation of allantoin was measured as follows. […] After the 24 hours or 7 days, a supernatant was removed therefrom, and the resulting mixture was dried in a thermostat to entirely remove any remaining supernatant, leaving only the precipitated portion. Then, the precipitated portion was dried for 12 hours, and then a weight thereof was measured. Thus, the amount of precipitation was derived as a difference value between the measured weight and the previously measured weight of the empty container.

[4] = Ceramide dispersion force evaluation (ceramide in polyol); assay type: physicochemical
Protocol: (§1) Ceramide is an oil-soluble substance that is not soluble in water, precipitates easily during cosmetic production. It is difficult to stabilize ceramide due to gelling during the cosmetic production. In accordance with the present disclosure, the dispersion forces based on types of polyols were compared with each other using the characteristics of ceramide that precipitation thereof occurs well. The stability was evaluated at each of the room temperature, the refrigeration temperature, and the thermostat (45° C.).

[5] = Dispersibility of vitamin C in P/O emulsion under heating condition; assay type: physicochemical; settings: vitamin C-containing formulations
Protocol: Vitamin C is a water-soluble substance that dissolves well in water. […] Therefore, in this experiment, vitamin C was applied to a polyol in oil (P/O) formulation as an anhydrous formulation, and an ivory-colored cream was prepared to evaluate dispersibility. It is more important to produce a stable cosmetic without discoloration, odor change, or phase separation rather than the problem of precipitation regarding vitamin C. Thus, factors for evaluating the dispersing power were set as soft spreadability, application uniformity, and emulsion stability. 1 part by weight of […] JC 500B, 1.5 parts by weight of ABIL EM 90, and 2 parts by weight of KF 6017 were added to 100 parts by weight of ELASTOMER BASE to produce an oil-based mixed solution 1. […] Further. 15 parts by weight of ascorbic acid ultra-fine powder was used to prepare a water-based mixed solution 2. Further, 45 parts by weight of KSG-16 was used to prepare an oil-based mixed solution 2. The oil-based mixed solution 1 was heated to 80 to 90° C. while stirring the same. […] The dispersion stability was evaluated as follows: unstable: phase separation between the oil phase and the aqueous phase, discoloration and/or odor change, normal: the oil phase being slightly separated, and stable: no oil phase separation.

[6] = Ceramide dispersion force in solubilized essence formulation and O/W emulsion formulation; assay type: physicochemical
Protocol: Further, an experiment for evaluating the dispersion force of ceramide was performed by applying the same to each of the solubilized essence formulation and the O/W emulsion formulation.

[7] = Ceramide dispersion force in solubilized skin formulation; assay type: physicochemical
Protocol: as §1
0.02 parts by weight of EDTA-2Na and 2 parts by weight of 1,2-hexanediol were added to 100 parts by weight of purified water to prepare a water-based mixed solution 1. On the other hand, 0.1 parts by weight of fragrance, 0.3 parts by weight of PEG-60 hydrogenated castor oil, and 5 parts by weight of DPG (Dipropylene Glycol) were mixed with each other to produce a solubilized mixed solution. Further, a water-based mixed solution 2 was prepared by mixing 10 parts by weight of polyol of Present Example 6 and 1 part by weight of ceramide with each other.
The water-based mixed solution 1 was stirred at room temperature for 2 minutes. On the other hand, the solubilized mixed solution was heated to 45 to 50° C. while stirring the same to make the same transparent, and then was slowly added to the water-based mixed solution under a stirring operation. […]

NC(=O)NC1NC(=O)NC1=O (stereo not drawn) [allantoin]
solubility of allantoin [1]: 0.5 g/100 mL

C[C@H](O)[C@@H](C)O [Present Example 2, (2R,3S)-2,3butanediol]
allantoin dispersion force in the solubilized formulation [2]: excellent

C[C@H](O)[C@@H](C)O [Present Example 1, (2R,3S)-2,3butanediol]
dispersion force for allantoin [3]: excellent

C[C@H](O)[C@@H](C)O [Present Example 5, (2R,3S)-2,3butanediol]
ceramide dispersion force ([4]; 1 part ceramide in 100 parts polyol): ceramide was stably dispersed | state after 4 weeks in thermostat ([4]; thermostat (45° C.), 4 weeks): excellent dispersing power

C[C@H](O)[C@@H](C)O [(2R,3S)-2,3-butanediol]
difference between the properties under the heating/non-heating conditions [5]: no significant difference | dispersion force of ceramide [6]: the dispersion force was excellent | gelling phenomenon [6]: no gelling phenomenon was observed

C[C@H](O)[C@@H](C)O [Present Example 6, (2R,3S)-2,3butanediol]
ceramide dispersion force [7]: ceramide was stably dispersed
